The text below walks through data of patent US5633255A, “1,2-dihydro-2-oxo-3-aminoquinoxaline derivatives, their preparation and their therapeutic application” (Pierre Fabre Medicament, priority 1992, dated 1997).

Broadly, the IC50 is the concentration that gives 50% inhibition. Low readings indicate higher potency, high ones lower potency.

Values after ≈ are worked out from the molar mass of the structure shown. Counter-ions that a name gives are not always drawn.

Experiment [1] deals with trachea (contraction induced by histamine). The experiment can be described thus: antagonism of the effect of histamine (contractions of isolated guinea pig trachea). The format is cell-based. The settings on record: Cavia porcellus, 5 min, histamine dihydrochloride 10 μg/ml, 5 min contact, 37° C. As for the experimental part:
(§1) To this end, the compounds were studied for their antagonistic effect on the contractions induced by various products according to the following procedure. A piece of trachea from a male three-colored guinea pig weighing 400 g on average is cut into rings and mounted (2.5 cm approximately) in an insulated organ tank which is thermostatted at 37° C. and filled with oxygenated Tyrode's solution. The isometric contractions induced by the various mediators are recorded using a Gould Statham UC2 sensor (Gould Inc. Oxnard, Calif., U.S.A.) or a Palmer Bioscience UF1 sensor connected to a potentiometric recorder ([…], Selb, FRG). At the start of the experiment, the fragment of trachea is subjected to a tension of 1 g and left to stand for 1 hour. The following mediator concentrations are used (concentrations generally inducing a maximum contraction): histamine dihydrochloride, 10 μg/ml; potassium chloride, 1850 μg/ml. The concentrations of agents used result in contractions which become maximal after 5 to 15 min. depending on the mediators and remain at a steady level thereafter. A concentration of the product studied is administered for each contraction and the product is left in contact with the trachea for 5 min. The possible inhibition obtained after this time is measured (percentage of variation in the amplitude of the contraction). The trachea is next washed for 15 seconds and left to stand for 10 min. approximately (time necessary to return to the base tonus) before inducing a new contraction. The water-insoluble products are diluted in 0.178% (v.v) (final bath concentration) dimethyl sulfoxide (DMSO). […] The 50% inhibitory concentrations (IC50) are calculated using an SAS (Statistical Analysis System) program based on the model of Bliss and […] (Bliss C. I. and […]. Biological Assay Ann. Rev. Physiol. 5, 479, 1943).

The test system of experiment [2] is Zymosan Pleurisy. The experiment can be described thus: pleurisy model with Zymosan in rats. To be noted: po; rat, 100 mg/kg p.o. one hour before Zymosan (10 mg intrapleural), exudate measured 1 hour later; read-out: Zymosan Pleurisy volume pleural exudate. The format is in vivo, rat (male Sprague Dawley). The procedure:
The compounds of the invention were also tested on the pleurisy model with Zymosan in rats ([…] et al. Pharmacol. Res., 21, 385, 1989) according to the following procedure: 10 mg of Zymosan in a volume of 0.15 ml of sterile 0.9% NaCl are injected into the pleural cavity of male Sprague Dawley rats mildly anesthetized with ether. The animals are sacrificed 1 hour later and the pleural exudate is withdrawn and measured. The animals are kept unfed from the evening before. The products are administered p.o. one hour before injection of the inflammation-inducing agent, at a dose of 100 mg/kg.

Experiment [3] deals with trachea (contraction induced by potassium chloride). As to the kind of experiment: antagonism of the effect of potassium chloride (contractions of isolated guinea pig trachea). The settings on record: Cavia porcellus, 5 min, potassium chloride 1850 μg/ml, 5 min contact, 37° C. The format is cell-based. The procedure:
as §1

For `CCCn1c(=O)c(N(C)C)nc2ccccc21.Cl` [Compound 7, 1-n-propyl-1,2-dihydro-2-oxo-3-dimethylaminoquinoxaline hydrochloride], the IC50 in experiment [1] is 10.7 mg/L; in experiment [3], 28 mg/L. For the same compound, the change in vivo at 100 mg/kg in experiment [2] was -44%.
`C=CCn1c(=O)c(NC)nc2ccccc21` [Compound 12]: the IC50 turned out to be 1.1 mg/L (≈ 5.11 µM) in experiment [1] and 9.1 mg/L (≈ 42.3 µM) in experiment [3]. Further, in experiment [2], the change in vivo at 100 mg/kg was -31%.
Consider `CC(C)=CCn1c(=O)c(N(C)C)nc2ccccc21` [Compound 16], for which half-maximal inhibition in experiment [1] (IC50) was put at 13.5 mg/L (≈ 52.5 µM).
Regarding `CCCn1c(=O)c(NC)nc2ccccc21.Cl` [Compound 6, 1-n-propyl-1,2-dihydro-2-oxo-3-methylaminoquinoxaline hydrochloride], the figures for the IC50 in experiment [1] and in experiment [3] were 6.4 mg/L and 4.7 mg/L, respectively. The change in vivo at 100 mg/kg in experiment [2] was -27%.
The like results for `CCCCn1c(=O)c(N(C)C)nc2ccccc21` [Compound 10] were, in that order, 5.7 mg/L (≈ 23.2 µM), 45 mg/L (≈ 183 µM) and -47%.
For `CC(C)=CCn1c(=O)c(N)nc2ccccc21` [Compound 14, hydrochloride] the same measures were 2.6 mg/L, 7.4 mg/L and -14%.
Consider `Cn1c(=O)c2[nH]cnc2n(C)c1=O` [Theophylline, reference compound], for which the IC50 in experiment [1] and in experiment [3] was 30 mg/L (≈ 167 µM) each time.
`CCCCn1c(=O)c(NC)nc2ccccc21` [Compound 9]: the IC50 in experiment [1] was found to be 0.55 mg/L (≈ 2.38 µM); in experiment [3], 11.1 mg/L (≈ 48 µM). Moreover, the change in vivo at 100 mg/kg in experiment [2] is -29%.
The like results for `C=CCn1c(=O)c(N(C)C)nc2ccccc21` [Compound 13] were, in that order, 8.6 mg/L (≈ 37.5 µM), 19.3 mg/L (≈ 84.2 µM) and -43%.
The like results for `CCCCn1c(=O)c(N)nc2ccccc21` [Compound 8] were, in that order, 1.7 mg/L (≈ 7.82 µM), 9.6 mg/L (≈ 44.2 µM) and 4%.
Take `CC(C)(O)CCn1c(=O)c(N)nc2ccccc21` [Compound 17, 1-(3-methyl-3-hydroxy)butyl-1,2-dihydro-2-oxo-3-aminoquinoxaline hydrochloride]: the IC50 was determined as 23 mg/L in experiment [1] and 45 mg/L in experiment [3].
Regarding `CNc1nc2ccccc2n(CC=C(C)C)c1=O` [Compound 15], in experiment [1], 0.65 mg/L (≈ 2.67 µM) corresponded to half-maximal inhibition (IC50). Further, in experiment [2], the change in vivo at 100 mg/kg was -5%.
`C=CCn1c(=O)c(N)nc2ccccc21` [Compound 11]: the IC50 in experiment [1] was 5.9 mg/L (≈ 29.3 µM); in experiment [3] it was 21 mg/L (≈ 104 µM). Also, the change in vivo at 100 mg/kg in experiment [2] was -33%.
The like results for `CCCn1c(=O)c(N)nc2ccccc21.Cl` [Compound 5, 1-n-propyl-1,2-dihydro-2-oxo-3-aminoquinoxaline hydrochloride] were, in that order, 4.6 mg/L, 19.3 mg/L and -21%.
